Structures can show the parent of a compound that is named as a salt. Where two headings read alike, the source gives them in different places.
System: Acinetobacter baumannii ATCC17961
Test: Antimicrobial susceptibility testing: 90% growth inhibitory concentration (IC90) determination in Iso-Sensitest broth, OD600 growth
Type: cell-based
Procedure, shortened: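 Serial twofold dilution, 10 points, e.g. 50–0.097 μM final; ~5×10^(5) CFU/ml; 35±2° C, 16 h; kinetic OD600 every 20 min; IC90 from log-phase inhibition.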

[1] = Acinetobacter baumannii, ATCC17961, 16 h, read-out: A. baumannii ATCC 17961 IC90 (uM), strain ATCC 17961, OD600 growth over 16 h
[2] = Acinetobacter baumannii, ATCC17961, 16 h, strain ATCC 17961, OD600 growth over 16 h, read-out: A. baumannii ATCC 17961 IC90
[3] = strain ATCC 17961, OD600 growth over 16 h, read-out: A. baumannii ATCC 17961 IC90

| IC90 [2] [µM] | Compound | IC90 [1] [µM] | other results |
| --- | --- | --- | --- |
|  | C[C@@H](NC(=O)c1ccc(Nc2nccn3c(-c4c[nH]nc4C(F)(F)F)cnc23)cc1Cl)C(=O)NCCN(C)C [Example 98, 2-chloro-N-[(2R)-1-[2-(dimethylamino)ethylamino]-1-oxopropan-2-yl]-4-[[3-[3-(trifluoromethyl)-1H-pyrazol-4-yl]imidazo[1,2-a]pyrazin-8-yl]amino]benzamide formate] | 1.94 |  |
| 0.34 | CCc1cc(Nc2nccn3c(-c4cn(CC#N)nc4C(F)(F)F)cnc23)ccc1C(=O)NCCCNC(=O)N1CC[C@@H](N)C1 [Example 685, (R)-3-amino-N-(3-(4-((3-(1-(cyanomethyl)-3-(trifluoromethyl)-1H-pyrazol-4-yl)imidazo[1,2-a]pyrazin-8-yl)amino)-2-ethylbenzamido)propyl) pyrrolidine-1-carboxamide formate] |  |  |
| 0.148 | C#CCn1cc(-c2cnc3c(Nc4ccc(C(=O)NC)c(CC)c4)nccn23)c(C(F)(F)F)n1 [Example 335, 2-ethyl-N-methyl-4-[[3-[1-prop-2-ynyl-3-(trifluoromethyl)pyrazol-4-yl]imidazo[1,2-a]pyrazin-8-yl]amino]benzamide] |  |  |
|  | C#CCn1cc(-c2cnc3c(Nc4cc(C)c(C(=O)NCCOCCN)c(F)c4)nccn23)c(C(F)(F)F)n1 [Example 59, N-[2-(2-aminoethoxy)ethyl]-2-fluoro-6-methyl-4-[[3-[1-prop-2-ynyl-3-(trifluoromethyl)pyrazol-4-yl]imidazo[1,2-a]pyrazin-8-yl]amino] benzamide] |  | IC90 [3]: 0.216 µM |
| 0.311 | O=C(c1ccc(Nc2nccn3c(-c4c[nH]nc4C(F)(F)F)cnc23)cc1Cl)N1CCN(C(=O)[C@@]2(O)CCCNC2)CC1 [Example 248, [2-chloro-4-[[3-[3-(trifluoromethyl)-1H-pyrazol-4-yl]imidazo[1,2-a]pyrazin-8-yl]amino]phenyl]-[4-[(3R)-3-hydroxypiperidine-3-carbonyl]piperazin-1-yl]methanone] |  |  |
|  | CCc1cc(Nc2nccn3c(-c4cn(CC(F)F)nc4C(F)(F)F)cnc23)ccc1C(=O)NCC(=O)N1CCCC1CN (stereo not shown) [Example 528, N-[2-[2-(aminomethyl)pyrrolidin-1-yl]-2-oxo-ethyl]-4-[[3-[1-(2,2-difluoroethyl)-3-(trifluoromethyl)pyrazol-4-yl]imidazo[1,2-a]pyrazin-8-yl]amino]-2-ethyl-benzamide formate] | 0.243 |  |
|  | COCCn1cc(-c2cnc3c(Nc4ccc(C(=O)N5CCN(C(=O)N[C@@H]6CCNC6)CC5)c(Cl)c4)nccn23)c(C(F)(F)F)n1 [Example 296, 4-[2-chloro-4-[[3-[1-(2-methoxyethyl)-3-(trifluoromethyl)pyrazol-4-yl]imidazo[1,2-a]pyrazin-8-yl]amino]benzoyl]-N-[(3R)-pyrrolidin-3-yl]piperazine-1-carboxamide formate] | 0.491 |  |
|  | CCc1cc(Nc2nccn3c(-c4cn(CCC#N)nc4C(F)(F)F)cnc23)ccc1C(=O)NCCOCCN [Example 33, N-[2-(2-aminoethoxy)ethyl]-4-[[3-[1-(2-cyanoethyl)-3-(trifluoromethyl)pyrazol-4-yl]imidazo[1,2-a]pyrazin-8-yl]amino]-2-ethylbenzamide formate] | 0.269 |  |
|  | CCc1cc(Nc2nccn3c(-c4cn(CCF)nc4C(F)(F)F)cnc23)ccc1C(=O)NCCOCCN1CCOCC1 [Example 737, 2-ethyl-4-((3-(1-(2-fluoroethyl)-3-(trifluoromethyl)-1H-pyrazol-4-yl)imidazo[1,2-a]pyrazin-8-yl)amino)-N-(2-(2-morpholinoethoxy)ethyl)benzamide formate] | 0.495 |  |
|  | N#CCn1cc(-c2cnc3c(Nc4ccc(C(=O)N5CCN(C(=O)[C@@H]6CC[C@@H](N)C6)CC5)c(Cl)c4)nccn23)c(C(F)(F)F)n1 [Example 573, 2-(4-(8-((4-(4-((1R,3R)-3-aminocyclopentane-1-carbonyl)piperazine-1-carbonyl)-3-chlorophenyl)amino)imidazo[1,2-a]pyrazin-3-yl)-3-(trifluoromethyl)-1H-pyrazol-1-yl)acetonitrile formate] | 0.169 |  |
|  | N#CCn1cc(-c2cnc3c(Nc4ccc(C(=O)NCCO)c(Cl)c4)nccn23)c(C(F)(F)F)n1 [Example 234, 2-chloro-4-[[3-[1-(cyanomethyl)-3-(trifluoromethyl)pyrazol-4-yl]imidazo[1,2-a]pyrazin-8-yl]amino]-N-(2-hydroxyethyl) benzamide] |  | IC90 [3]: 0.189 µM |
| 0.245 | CCc1cc(Nc2nccn3c(-c4c[nH]nc4C(F)(F)F)cnc23)ccc1C(=O)NCCCNC(=O)[C@H]1C[C@H](N)C1 [Example 532, N-(3-((1r,3r)-3-aminocyclobutane-1-carboxamido)propyl)-2-ethyl-4-((3-(3-(trifluoromethyl)-1H-pyrazol-4-yl)imidazo [1,2-a]pyrazin-8-yl)amino)benzamide formate] |  |  |
| 0.231 | C#CCn1cc(-c2cnc3c(Nc4ccc(C(=O)NCC)c(CC)c4)nccn23)c(C(F)(F)F)n1 [Example 112, N,2-diethyl-4-[[3-[1-prop-2-ynyl-3-(trifluoromethyl)pyrazol-4-yl]imidazo[1,2-a]pyrazin-8-yl]amino]benzamide] |  |  |
| 1.05 | O=C(c1ccc(N(c2nccn3c(-c4c[nH]nc4C(F)(F)F)cnc23)C(F)F)cc1Cl)N1CCNCC1 [Example 9, [2-chloro-4-[difluoromethyl-[3-[3-(trifluoromethyl)-1H-pyrazol-4-yl]imidazo[1,2-a]pyrazin-8-yl]amino]phenyl]-piperazin-1-ylmethanone] |  |  |
|  | Cc1cc(Nc2nccn3c(-c4cn(CC#N)nc4C(F)(F)F)cnc23)ccc1C(=O)NCCNC(=O)[C@@H]1C[C@@H](O)CN1 [Example 375, (2S,4R)-N-[2-[[4-[[3-[1-(cyanomethyl)-3-(trifluoromethyl)pyrazol-4-yl]imidazo[1,2-a]pyrazin-8-yl]amino]-2-methylbenzoyl]amino]ethyl]-4-hydroxypyrrolidine-2-carboxamide formate] | 0.338 |  |
| 0.233 | N#CCn1cc(-c2cnc3c(Nc4ccc(C(=O)NCC(=O)N5CCC(N)CC5)c(Cl)c4)nccn23)c(C(F)(F)F)n1 [Example 502, N-[2-(4-amino-1-piperidyl)-2-oxo-ethyl]-2-chloro-4-[[3-[1-(cyanomethyl)-3-(trifluoromethyl)pyrazol-4-yl]imidazo[1,2-a]pyrazin-8-yl]amino]benzamide formate] |  |  |
|  | CCc1cc(Nc2nccn3c(-c4cn(CC(F)F)nc4C(F)(F)F)cnc23)ccc1C(=O)NCCCNC(=O)[C@@H](C)N [Example 633, (R)-N-(3-(2-aminopropanamido)propyl)-4-((3-(1-(2,2-difluoroethyl)-3-(trifluoromethyl)-1H-pyrazol-4-yl)imidazo[1,2-a]pyrazin-8-yl)amino)-2-ethylbenzamide formate] | 0.214 |  |
| 0.75 | O=C(c1ccc(Nc2nccn3c(-c4cn(C(F)F)nc4C(F)(F)F)cnc23)cc1Cl)N1CC2(C1)CN(C(=O)[C@@H]1CCCN1)C2 [Example 763, (S)-(2-chloro-4-((3-(1-(difluoromethyl)-3-(trifluoromethyl)-1H-pyrazol-4-yl)imidazo[1,2-a]pyrazin-8-yl)amino)phenyl)(6-prolyl-2,6-diazaspiro[3.3]heptan-2-yl)methanone] |  |  |
| 0.209 | CCc1cc(Nc2nccn3c(-c4cn(CC(F)F)nc4C(F)(F)F)cnc23)ccc1C(=O)NCCCNC(=O)N1CC[C@@H](N)C1 [Example 632, (R)-3-amino-N-(3-(4-((3-(1-(2,2-difluoroethyl)-3-(trifluoromethyl)-1H-pyrazol-4-yl)imidazo[1,2-a]pyrazin-8-yl)amino)-2-ethylbenzamido)propyl) pyrrolidine-1-carboxamide formate] |  |  |
